This note sets out measurements from PMC7809356, “Structural characterization of a GNAT family acetyltransferase from Elizabethkingia anophelis bound to acetyl-CoA reveals a new dimeric interface” (Scientific Reports, 2021).

For experiment [1], the target named is T1, GNAT family acetyltransferase from Elizabethkingia anophelis (BAY10_3400) (Elizabethkingia anophelis, UniProt Z9UBX7MZA9).
T1 construct: full length, non-cleavable N-terminal His6-tag (vector BG1861), expressed in E. coli Rosetta BL21(DE3)R3; all residues modelled except N-terminal Met; monomer and dimer in SEC, crystal from dimer peak
Put plainly: X-ray crystallography, […] A. The class given is binding. Conditions: co-crystallised with 5 mM acetyl-CoA, 100 mM Tris/HCl pH 5.5, 2 M ammonium sulfate, 285 K; active site.

Experiment [2] addresses GNAT family acetyltransferase from Elizabethkingia anophelis (Elizabethkingia anophelis). Put plainly: SEC; preparative HiLoad 26/60 Superdex 75 in 25 mM HEPES, 500 mM NaCl, 5% glycerol, 2 mM DTT, 0.025% azide pH 7.0; calibrated with conalbumin, ovalbumin and ribonuclease A; molecular weights from the elution volume.

Take `CC(=O)SCCNC(=O)CCNC(=O)[C@H](O)C(C)(C)COP(=O)(O)OP(=O)(O)OC[C@H]1O[C@@H](n2cnc3c(N)ncnc32)[C@H](O)[C@@H]1OP(=O)(O)O` [acetyl-CoA]: the “X-ray crystallography, 1.85 A” value in experiment [1] was “Our structure contained a well-ordered acetyl-CoA molecule bound in the active site”.
In experiment [2], “GNAT family acetyltransferase from Elizabethkingia anophelis (enzyme)” yielded a stoichiometry N of 2.
